Patent publication US12195455B2, “Succinate and fumarate acid addition salts of piperazine derivatives” (Asceneuron SA, priority 2018, dated 2025)

Protocol: The free base Example 35 (10 mg) was weighed into glass vials and water was added in 100 μL portions up to 1 mL then 0.5 mL portions thereafter. Solubility was assessed visually following a brief period of equilibration.

visual aqueous solubility: < 1250 µg/mL
Structure (SMILES): C[C@@H](c1ccc2scnc2c1)N1CCN(c2ncc([S@@](C)(=N)=O)cn2)CC1 (single isomer, unassigned) [Example 35]
